Data published in patent US10472356B2, “Bicyclic ketone sulfonamide compounds” (AMGEN INC., priority 2015, dated 2019).
pIC50: −log10 of the molar value.

Tests used:
human Nav1.7 [1] = target: T1, human Nav1.7 (Homo sapiens, UniProt Q15858); experiment: Nav 1.7 IWB In Vitro Assay (IonWorks Barracuda); type: cell-based; settings: HEK293 cells stably transfected with human Nav 1.7; IonWorks Barracuda population patch-clamp; cells clamped to −20 mV for 4 minutes with compound; 26th pulse; read-out: hNav1.7 IWB IC50
T1 construct: expressed in transfected cells; host or cells: HEK293
In short: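 Population patch clamp of HEK293 cells stably expressing human Nav 1.7: 26 pulses to −20 mV (150 ms, 5 Hz) from −110 mV, then 4 min at −20 mV with compound, 3 s recovery at −110 mV and the train repeated. % inhibition of 26th-pulse peak current vs no compound; IC50 from concentration-response curves.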

human Nav1.7 [2] = target: T1, human Nav1.7; experiment: Nav 1.7 In Vitro PatchXpress (PX) Assay; type: cell-based; settings: HEK 293 cells stably transfected with human Nav1.7; PatchXpress whole cell voltage clamp; partially inactivated state (holding potential yielding 20 to 50% inactivation); read-out: hNav1.7 PX IC50
In short: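 Whole-cell voltage clamp on HEK 293 cells stably expressing human Nav1.7 (automated patch), holding potential giving 20–50% inactivation; 20 ms pulses to −10 mV at 0.1 Hz. Single compound concentration applied 3 min, peak current inhibition measured; IC50 fitted from 3–5 cells per concentration.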

T1 sequence (Q15858 whole entry): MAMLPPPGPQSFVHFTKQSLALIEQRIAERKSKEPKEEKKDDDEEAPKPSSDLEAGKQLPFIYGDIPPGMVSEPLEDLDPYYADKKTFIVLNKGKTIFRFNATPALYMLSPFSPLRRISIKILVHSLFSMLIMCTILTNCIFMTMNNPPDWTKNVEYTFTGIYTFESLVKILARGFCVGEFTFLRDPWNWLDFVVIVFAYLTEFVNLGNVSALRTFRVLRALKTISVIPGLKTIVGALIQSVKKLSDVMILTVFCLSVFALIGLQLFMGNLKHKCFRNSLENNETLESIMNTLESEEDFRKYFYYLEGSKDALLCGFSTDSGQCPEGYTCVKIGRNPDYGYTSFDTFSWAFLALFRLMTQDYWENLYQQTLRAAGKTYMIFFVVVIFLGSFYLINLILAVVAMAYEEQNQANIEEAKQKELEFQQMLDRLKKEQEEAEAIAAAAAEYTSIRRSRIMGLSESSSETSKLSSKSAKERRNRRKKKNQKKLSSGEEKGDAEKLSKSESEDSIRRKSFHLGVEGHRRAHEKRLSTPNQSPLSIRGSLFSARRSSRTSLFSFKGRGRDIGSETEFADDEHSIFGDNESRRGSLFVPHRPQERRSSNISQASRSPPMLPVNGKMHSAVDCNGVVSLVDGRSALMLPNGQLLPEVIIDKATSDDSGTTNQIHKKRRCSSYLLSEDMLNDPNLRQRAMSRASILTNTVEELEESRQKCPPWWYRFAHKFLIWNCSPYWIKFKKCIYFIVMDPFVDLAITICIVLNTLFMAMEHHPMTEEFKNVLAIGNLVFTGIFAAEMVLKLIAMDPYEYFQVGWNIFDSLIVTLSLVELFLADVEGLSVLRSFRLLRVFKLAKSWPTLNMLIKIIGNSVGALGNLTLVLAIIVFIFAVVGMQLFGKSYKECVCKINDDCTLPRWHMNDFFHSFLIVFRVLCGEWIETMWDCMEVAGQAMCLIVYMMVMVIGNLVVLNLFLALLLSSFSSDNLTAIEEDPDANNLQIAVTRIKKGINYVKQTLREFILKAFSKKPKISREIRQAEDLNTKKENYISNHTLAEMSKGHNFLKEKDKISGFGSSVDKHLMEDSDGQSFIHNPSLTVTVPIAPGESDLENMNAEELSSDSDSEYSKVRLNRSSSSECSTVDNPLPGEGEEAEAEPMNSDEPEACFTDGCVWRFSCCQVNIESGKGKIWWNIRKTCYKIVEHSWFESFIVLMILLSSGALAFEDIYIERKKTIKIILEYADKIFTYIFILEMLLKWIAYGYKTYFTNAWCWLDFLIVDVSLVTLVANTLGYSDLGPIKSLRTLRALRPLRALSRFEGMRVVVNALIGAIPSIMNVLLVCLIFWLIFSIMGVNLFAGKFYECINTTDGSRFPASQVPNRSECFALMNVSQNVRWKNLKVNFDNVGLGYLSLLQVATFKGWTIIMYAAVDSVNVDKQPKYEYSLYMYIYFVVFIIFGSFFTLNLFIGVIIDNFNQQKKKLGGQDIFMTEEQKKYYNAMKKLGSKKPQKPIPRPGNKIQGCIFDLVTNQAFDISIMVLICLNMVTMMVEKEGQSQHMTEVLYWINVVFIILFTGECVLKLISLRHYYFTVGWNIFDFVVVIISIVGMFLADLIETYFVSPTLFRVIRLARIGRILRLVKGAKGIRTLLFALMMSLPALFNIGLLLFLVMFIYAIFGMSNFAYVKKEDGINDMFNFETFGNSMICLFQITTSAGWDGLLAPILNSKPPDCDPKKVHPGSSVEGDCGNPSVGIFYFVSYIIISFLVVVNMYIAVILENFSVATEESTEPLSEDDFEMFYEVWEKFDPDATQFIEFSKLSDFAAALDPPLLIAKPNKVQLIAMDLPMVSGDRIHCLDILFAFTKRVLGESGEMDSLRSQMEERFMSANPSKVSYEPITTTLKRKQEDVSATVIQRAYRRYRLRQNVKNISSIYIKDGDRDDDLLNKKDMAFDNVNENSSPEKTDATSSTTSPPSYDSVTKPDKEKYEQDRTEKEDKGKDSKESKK

| SMILES | pIC50 (human Nav1.7 [1]) | pIC50 (human Nav1.7 [2]) |
| --- | --- | --- |
| COc1cc(-c2cc(F)cc(F)c2)c(F)cc1-n1c2c(ccc1=O)CN(S(=O)(=O)Nc1ccon1)[C@H](C)C2 [Example 3-D-M, M-(7R)-N-3-isoxazolyl-7-methyl-2-oxo-1-(2,3′,5′-trifluoro-5-methoxy-4-biphenylyl)-1,5,7,8-tetrahydro-1,6-naphthyridine-6(2H)-sulfonamide] | < 5.12 | < 6.00 |
| COc1cc(-c2cc(F)cc(C(F)(F)F)c2)c(F)cc1-n1c2c(ccc1=O)CN(S(=O)(=O)Nc1cccnn1)CC2 [Example 41, P-1-(2,3′-difluoro-5-methoxy-5′-(trifluoromethyl)-4-biphenylyl)-2-oxo-N-3-pyridazinyl-1,5,7,8-tetrahydro-1,6-naphthyridine-6(2H)-sulfonamide] | 8.74 | 7.48 |
| COc1cc(-c2cccc(C3CC3)c2)c(F)cc1-n1c2c(ccc1=O)CN(S(=O)(=O)Nc1cccnn1)CC2 [Example 42, P-1-(3′-cyclopropyl-2-fluoro-5-methoxy-4-biphenylyl)-2-oxo-N-3-pyridazinyl-1,5,7,8-tetrahydro-1,6-naphthyridine-6(2H)-sulfonamide] | 8.11 | 7.12 |
| COc1cc(-c2cc(C)ccc2Cl)c(F)cc1-n1c2c(ccc1=O)CN(S(=O)(=O)Nc1cccnn1)CC2 [Example 43, P-1-(2′-chloro-2-fluoro-5-methoxy-5′-methyl-4-biphenylyl)-2-oxo-N-3-pyridazinyl-1,5,7,8-tetrahydro-1,6-naphthyridine-6(2H)-sulfonamide] | 8.42 | 6.81 |
| COc1cc(-c2ccc(F)c(F)c2)c(Cl)cc1-n1c2c(ccc1=O)CN(S(=O)(=O)Nc1ccon1)CC2 [Example 51, P-1-(2-chloro-3′,4′-difluoro-5-methoxy-4-biphenylyl)-N-3-isoxazolyl-2-oxo-1,5,7,8-tetrahydro-1,6-naphthyridine-6(2H)-sulfonamide] | > 8.70 | 7.35 |
| COc1cc(-c2cc(OC)c(-n3c4c(ccc3=O)CN(S(=O)(=O)Nc3ccon3)CC4)cc2Cl)ccc1Cl [Example 52, P-1-(2,4′-dichloro-3′,5-dimethoxy-4-biphenylyl)-N-3-isoxazolyl-2-oxo-1,5,7,8-tetrahydro-1,6-naphthyridine-6(2H)-sulfonamide] | 8.55 | 7.64 |
| COc1cc(-c2cc(F)cc(Cl)c2)c(Cl)cc1-n1c2c(ccc1=O)CN(S(=O)(=O)Nc1ccon1)CC2 [Example 53, P-1-(2,3′-dichloro-5′-fluoro-5-methoxy-4-biphenylyl)-N-3-isoxazolyl-2-oxo-1,5,7,8-tetrahydro-1,6-naphthyridine-6(2H)-sulfonamide] | 9.15 | 8.28 |
| COc1cc(-c2cccc(C(F)(F)F)c2)c(Cl)cc1-n1c2c(ccc1=O)CN(S(=O)(=O)Nc1ccon1)CC2 [Example 54, P-1-(2-chloro-5-methoxy-3′-(trifluoromethyl)-4-biphenylyl)-N-3-isoxazolyl-2-oxo-1,5,7,8-tetrahydro-1,6-naphthyridine-6(2H)-sulfonamide] | 9.30 | 8.16 |
| COc1ccc(Cl)cc1-c1cc(OC)c(-n2c3c(ccc2=O)CN(S(=O)(=O)Nc2cccnn2)CC3)cc1F [Example 59, P-1-(5′-chloro-2-fluoro-2′,5-dimethoxy-[1,1′-biphenyl]-4-yl)-2-oxo-N-(pyridazin-3-yl)-1,2,7,8-tetrahydro-1,6-naphthyridine-6(5H)-sulfonamide] | 8.19 | 7.32 |
| COc1cc(-c2cc(Cl)cnc2OC)c(F)cc1-n1c2c(ccc1=O)CN(S(=O)(=O)Nc1cccnn1)CC2 [Example 60, P-1-(4-(5-chloro-2-methoxypyridin-3-yl)-5-fluoro-2-methoxyphenyl)-2-oxo-N-(pyridazin-3-yl)-1,2,7,8-tetrahydro-1,6-naphthyridine-6(5H)-sulfonamide] | 7.43 | 6.38 |
| COc1cc(-c2ccc(Cl)cc2)c(F)cc1-n1c2c(ccc1=O)CN(S(=O)(=O)Nc1cccnn1)CC2 [Example 61, P-1-(4′-chloro-2-fluoro-5-methoxy-[1,1′-biphenyl]-4-yl)-2-oxo-N-(pyridazin-3-yl)-1,2,7,8-tetrahydro-1,6-naphthyridine-6(5H)-sulfonamide] | 7.62 | 6.71 |
| COc1cc(-c2cccc(Cl)c2)c(F)cc1-n1c2c(ccc1=O)CN(S(=O)(=O)Nc1cccnn1)CC2 [Example 62, P-1-(3′-chloro-2-fluoro-5-methoxy-[1,1′-biphenyl]-4-yl)-2-oxo-N-(pyridazin-3-yl)-1,2,7,8-tetrahydro-1,6-naphthyridine-6(5H)-sulfonamide] | 8.07 | 7.12 |
| COc1ccc(-c2cc(OC)c(-n3c4c(ccc3=O)CN(S(=O)(=O)Nc3cccnn3)CC4)cc2F)cc1Cl [Example 63, P-1-(3′-chloro-2-fluoro-4′,5-dimethoxy-[1,1′-biphenyl]-4-yl)-2-oxo-N-(pyridazin-3-yl)-1,2,7,8-tetrahydro-1,6-naphthyridine-6(5H)-sulfonamide] | 7.65 | 6.49 |
| COc1cc(-c2cc(C(F)(F)F)cnc2OC)c(F)cc1-n1c2c(ccc1=O)CN(S(=O)(=O)Nc1cccnn1)CC2 [Example 64, P-1-(5-fluoro-2-methoxy-4-(2-methoxy-5-(trifluoromethyl)pyridin-3-yl)phenyl)-2-oxo-N-(pyridazin-3-yl)-1,2,7,8-tetrahydro-1,6-naphthyridine-6(5H)-sulfonamide] | 8.72 | 7.18 |
| COc1cc(-c2cccc(Cl)c2OC)c(F)cc1-n1c2c(ccc1=O)CN(S(=O)(=O)Nc1cccnn1)CC2 [Example 65, P-1-(3′-chloro-2-fluoro-2′,5-dimethoxy-[1,1′-biphenyl]-4-yl)-2-oxo-N-(pyridazin-3-yl)-1,2,7,8-tetrahydro-1,6-naphthyridine-6(5H)-sulfonamide] | 8.07 | 6.60 |
| COc1cc(-c2ccc(C(F)(F)F)cc2)c(F)cc1-n1c2c(ccc1=O)CN(S(=O)(=O)Nc1cccnn1)CC2 [Example 67, P-1-(2-fluoro-5-methoxy-4′-(trifluoromethyl)-[1,1′-biphenyl]-4-yl)-2-oxo-N-(pyridazin-3-yl)-1,2,7,8-tetrahydro-1,6-naphthyridine-6(5H)-sulfonamide] | 7.69 | 7.12 |
| COc1cc(-c2cc(C)cc(Cl)c2)c(F)cc1-n1c2c(ccc1=O)CN(S(=O)(=O)Nc1cccnn1)CC2 [Example 69, P-1-(3′-chloro-2-fluoro-5-methoxy-5′-methyl-[1,1′-biphenyl]-4-yl)-2-oxo-N-(pyridazin-3-yl)-1,2,7,8-tetrahydro-1,6-naphthyridine-6(5H)-sulfonamide] | 7.77 | 7.64 |
| COc1cc(Cl)cc(-c2cc(OC)c(-n3c4c(ccc3=O)CN(S(=O)(=O)Nc3cccnn3)CC4)cc2F)c1 [Example 70, P-1-(3′-chloro-2-fluoro-5,5′-dimethoxy-[1,1′-biphenyl]-4-yl)-2-oxo-N-(pyridazin-3-yl)-1,2,7,8-tetrahydro-1,6-naphthyridine-6(5H)-sulfonamide] | 8.21 | 7.70 |
| COc1cc(-c2cccc(C(F)F)c2)c(F)cc1-n1c2c(ccc1=O)CN(S(=O)(=O)Nc1cccnn1)CC2 [Example 72, P-1-(3′-(difluoromethyl)-2-fluoro-5-methoxy-[1,1′-biphenyl]-4-yl)-2-oxo-N-(pyridazin-3-yl)-1,2,7,8-tetrahydro-1,6-naphthyridine-6(5H)-sulfonamide] | 7.82 | 6.58 |
| COc1cc(-c2ccc(F)c(C)c2)c(F)cc1-n1c2c(ccc1=O)CN(S(=O)(=O)Nc1cccnn1)CC2 [Example 73, P-1-(2,4′-difluoro-5-methoxy-3′-methyl-[1,1′-biphenyl]-4-yl)-2-oxo-N-(pyridazin-3-yl)-1,2,7,8-tetrahydro-1,6-naphthyridine-6(5H)-sulfonamide] | 7.74 | 6.63 |
| COc1ccc(C(F)(F)F)cc1-c1cc(OC)c(-n2c3c(ccc2=O)CN(S(=O)(=O)Nc2cccnn2)CC3)cc1F [Example 74, P-1-(2-fluoro-2′,5-dimethoxy-5′-(trifluoromethyl)-[1,1′-biphenyl]-4-yl)-2-oxo-N-(pyridazin-3-yl)-1,2,7,8-tetrahydro-1,6-naphthyridine-6(5H)-sulfonamide] | 8.11 | 7.53 |
| COc1cc(-c2cc(C)cc(C(F)(F)F)c2)c(F)cc1-n1c2c(ccc1=O)CN(S(=O)(=O)Nc1cccnn1)CC2 [Example 75, P-1-(2-fluoro-5-methoxy-3′-methyl-5′-(trifluoromethyl)-[1,1′-biphenyl]-4-yl)-2-oxo-N-(pyridazin-3-yl)-1,2,7,8-tetrahydro-1,6-naphthyridine-6(5H)-sulfonamide] | 7.94 | 7.38 |
| COc1cc(OC(F)(F)F)cc(-c2cc(OC)c(-n3c4c(ccc3=O)CN(S(=O)(=O)Nc3cccnn3)CC4)cc2F)c1 [Example 76, P-1-(2-fluoro-3′,5-dimethoxy-5′-(trifluoromethoxy)-[1,1′-biphenyl]-4-yl)-2-oxo-N-(pyridazin-3-yl)-1,2,7,8-tetrahydro-1,6-naphthyridine-6(5H)-sulfonamide] | 8.38 | 7.41 |
| COc1cc(-c2cc(C)cc(OC(F)(F)F)c2)c(F)cc1-n1c2c(ccc1=O)CN(S(=O)(=O)Nc1cccnn1)CC2 [Example 78, P-1-(2-fluoro-5-methoxy-3′-methyl-5′-(trifluoromethoxy)-[1,1′-biphenyl]-4-yl)-2-oxo-N-(pyridazin-3-yl)-1,2,7,8-tetrahydro-1,6-naphthyridine-6(5H)-sulfonamide] | 8.28 | 7.35 |
